Experimental data taken from patent publication US11248020B2, “Oligonucleotide compositions and methods for treating diseases” (priority 2017, dated 2022).

Key:
colon cancer = assay: Azoxymethane colon cancer model in rats after total colectomy: recurrences, metastases, survival; type: in vivo, male albino Wistar rats
Procedure: The studies were performed in male albino Wistar rats (Rappolovo breeding nursery), aged 14 weeks, weighing 180-190 g. Prior to the study period, animals (n=600) were kept in identical conditions, and received the same diet. For modeling colon cancer, the animals received Azoxymethane (Sigma) in the amount of 10 mg/kg (in 0.9% NaCl) for 12 weeks. In 26 weeks, the abdomen of anesthetized animals was opened, and the presence and size of colon tumors and metastases was visually assessed. Animals bearing neoplasms of more than 3 mm in diameter and having no observed metastases (360 animals) were subjected to total colectomy. In 2 days after surgery, mono- and/or oligonucleotide mixtures were administered either parenterally (via IV) or enterally (with drinking water). Each group consisted of 20 animals. In 8 weeks, surviving animals were sacrificed (animals were randomized into groups with 10 surviving animals per group), and the recurrence rates and presence of metastases was evaluated.
Enteral Administration The first control group received no treatment. Test group #1, Test group #2, Test group #3, Test group #4, Test group #5, and Test group #6 received mixtures of mono- and/or oligonucleotides (from 1 to 100,000 mcg/kg/day) prepared with the use of different nucleases, as specified in Table 2, below:
The first control group received no treatment. The second control group received conventional therapy consisting of 5-fluorouracil (5 mg/kg/day). Test group #1, Test group #2, Test group #3, Test group #4, and Test group #5 were administered (from 1 to 100,000 mcg/kg/day for 30 days).

Alzheimer's Disease = assay: Alzheimer's disease patients scored by MMSE and ADAScog; type: in vivo, human; conditions: average values per group
Procedure: In the first control group, the patients received conventional therapy, i.e., a reversible, noncompetitive glutamate receptors antagonist Memantine (10 mg per day). In the second control group the patients received placebo. Test group #4, and Test group #5 received compositions #4 and 5, respectively, in the form of extended release sublingual tablets (also comprising 12% hypromellose; 10% lactose monohydrate; 60% carbopol; 8% Polycarbophil; 10% starch-based gel) used 2 time a day. The patients were scored according to MMSE (Mini-Mental State Examination) and ADAScog (assessment of cognitive impairment) scales. 12 groups of 4 people were formed.

[1] = enteral administration (with drinking water), evaluated in 8 weeks
[2] = parenteral administration (via IV), 30 days

| Compound | No. of animals in the group with recurrences or metastases (colon cancer; [1]) | No. of animals with metastasis (colon cancer; [1]) | No. of surviving animals/Total No. per group (colon cancer; enteral administration (with drinking water), in 8 weeks) | No. of animals in the group with recurrences or metastases (colon cancer; [2]) | No. of animals with metastasis (colon cancer; [2]) | No. of surviving animals/Total No. of animals per group (colon cancer; [2]) | Patients score ADAScog (Alzheimer's Disease; in 30 days) | Patients score MMSE (Alzheimer's Disease; in 30 days) | Patients score ADAScog (Alzheimer's Disease; in 90 days) | Patients score MMSE (Alzheimer's Disease; in 90 days) | Patients score ADAScog (Alzheimer's Disease; pre-treatment) | Patients score MMSE (Alzheimer's Disease; pre-treatment) |
| --- | --- | --- | --- | --- | --- | --- | --- | --- | --- | --- | --- | --- |
| O=c1[nH]cc(F)c(=O)[nH]1 [2nd control, 5-fluorouracil] | 4 | 7 | 13/20 | 4 | 6 | 14/20 |  |  |  |  |  |  |
| CC12CC3CC(C)(C1)CC(N)(C3)C2 [1st control group, Memantine] |  |  |  |  |  |  | 37 | 15 | 37 | 16 | 41 | 13 |
